According to patent US9156801B2, “2-substituted oleanolic acid derivative, method preparing for same, and application thereof” (HANGZHOU BENSHENG PHARMACEUTICAL CO., LTD., priority 2011, dated 2015):
In brackets after ≈: the same amount, converted by molar mass.

Key:
Hela cell line = assay: solid tumor cell growth inhibition, MTT; type: cell-based; conditions: Homo sapiens, 72 h; for IC50: HeLa; for inhibition at 16 µg/mL: Hela, 16 μg/mL compound, read-out: IR (cell proliferation inhibition rate)
Outline: (§1)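 A 72 h continuous exposure to the oleanolic acid derivatives at different concentrations followed a 24 h settling period for cells seeded at 4000 per well. Medium was DMEM high glucose with 10% FBS, 37° C, 5% CO2. Surviving cells were assessed by MTT.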

Becap37 cell line = assay: solid tumor cell growth inhibition, MTT; type: cell-based; conditions: Homo sapiens; for inhibition at 16 µg/mL: Becap37, 16 μg/mL compound, 72 h, read-out: IR (cell proliferation inhibition rate); for IC50: Becap37, 72 h
Outline: as §1

CNE cell line = assay: solid tumor cell growth inhibition, MTT; type: cell-based; conditions: Homo sapiens, 72 h; for inhibition at 16 µg/mL: 16 μg/mL compound, read-out: IR (cell proliferation inhibition rate)
Outline: as §1

CaES-17 cell line = assay: solid tumor cell growth inhibition, MTT; type: cell-based; conditions: Homo sapiens, CaEs17; for inhibition at 16 µg/mL: CaES-17, 16 μg/mL compound, 72 h, read-out: IR (cell proliferation inhibition rate); for IC50: CaES-17, 72 h
Outline: as §1

PANC-1 cell line = assay: solid tumor cell growth inhibition, MTT; type: cell-based; conditions: Homo sapiens; for IC50: PANC-1, 72 h; for inhibition at 16 µg/mL: PANC-1, 16 μg/mL compound, 72 h, read-out: IR (cell proliferation inhibition rate)
Outline: as §1

Hep-2 cell line = assay: solid tumor cell growth inhibition, MTT; type: cell-based; conditions: Homo sapiens; for IC50: HEp-2, 72 h; for inhibition at 16 µg/mL: Hep-2, 16 μg/mL compound, 72 h, read-out: IR (cell proliferation inhibition rate)
Outline: as §1

MGC 803 cell line = assay: solid tumor cell growth inhibition, MTT; type: cell-based; conditions: Homo sapiens; for inhibition at 16 µg/mL: MGC 803, 16 μg/mL compound, 72 h, read-out: IR (cell proliferation inhibition rate); for IC50: MGC 803, 72 h
Outline: as §1

MG-63 cell line = assay: solid tumor cell growth inhibition, MTT; type: cell-based; conditions: Homo sapiens; for IC50: MG-63, 72 h; for inhibition at 16 µg/mL: MG-63, 16 μg/mL compound, 72 h, read-out: IR (cell proliferation inhibition rate)
Outline: as §1

PC-3 cell line = assay: solid tumor cell growth inhibition, MTT; type: cell-based; conditions: Homo sapiens; for IC50: PC-3, 72 h; for inhibition at 16 µg/mL: PC-3, 16 μg/mL compound, 72 h, read-out: IR (cell proliferation inhibition rate)
Outline: as §1

U87 MG cell line = assay: solid tumor cell growth inhibition, MTT; type: cell-based; conditions: Homo sapiens, U-87 MG, 72 h; for inhibition at 16 µg/mL: 16 μg/mL compound, read-out: IR (cell proliferation inhibition rate)
Outline: as §1

A549 cell line = assay: solid tumor cell growth inhibition, MTT; type: cell-based; conditions: Homo sapiens; for IC50: A549, 72 h; for inhibition at 16 µg/mL: A549, 16 μg/mL compound, 72 h, read-out: IR (cell proliferation inhibition rate)
Outline: as §1

RKO cell line = assay: solid tumor cell growth inhibition, MTT; type: cell-based; conditions: Homo sapiens, 72 h; for inhibition at 16 µg/mL: 16 μg/mL compound, read-out: IR (cell proliferation inhibition rate)
Outline: as §1

SK-OV-3 cell line = assay: solid tumor cell growth inhibition, MTT; type: cell-based; conditions: Homo sapiens; for IC50: SK-OV-3, 72 h; for inhibition at 16 µg/mL: SK-OV-3, 16 μg/mL compound, 72 h, read-out: IR (cell proliferation inhibition rate)
Outline: as §1

NB4 cell line = assay: leukemia cell growth inhibition, MTT; type: cell-based; conditions: Homo sapiens, NB-4; for inhibition at 16 µg/mL: NB4, 16 μg/mL compound, 72 h, read-out: IR (cell proliferation inhibition rate); for IC50: NB4, 72 h
Outline: (§2)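 6000 cells per well in RPMI 1640 with 10% FBS were exposed to the oleanolic acid derivatives at a range of concentrations for 72 h at 37 °C, 5% CO2. Viable cells were measured by MTT, with untreated control inhibition set at 0%.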

K562/adr cell line = assay: leukemia cell growth inhibition, MTT; type: cell-based; conditions: Homo sapiens, 72 h; for IC50: K562/Adr; for inhibition at 16 µg/mL: K562/adr, 16 μg/mL compound, read-out: IR (cell proliferation inhibition rate)
Outline: as §2

Jurkat cell line = assay: leukemia cell growth inhibition, MTT; type: cell-based; conditions: Homo sapiens, 72 h; for inhibition at 16 µg/mL: 16 μg/mL compound, read-out: IR (cell proliferation inhibition rate)
Outline: as §2

Kasumi-1 cell line = assay: leukemia cell growth inhibition, MTT; type: cell-based; conditions: Homo sapiens; for inhibition at 16 µg/mL: Kasumi-1, 16 μg/mL compound, 72 h, read-out: IR (cell proliferation inhibition rate); for IC50: Kasumi-1, 72 h
Outline: as §2

H9 cell line = assay: leukemia cell growth inhibition, MTT; type: cell-based; conditions: Homo sapiens; for IC50: H9, 72 h; for inhibition at 16 µg/mL: H9, 16 μg/mL compound, 72 h, read-out: IR (cell proliferation inhibition rate)
Outline: as §2

RPMI8226 cell line = assay: multiple myeloma cell growth inhibition, MTT; type: cell-based; conditions: Homo sapiens, RPMI-8226; for inhibition at 16 µg/mL: RPMI8226, 16 μg/mL compound, 72 h, read-out: IR (cell proliferation inhibition rate); for IC50: RPMI8226, 72 h
Outline: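 RPMI8226 cells (6000 per well) in RPMI 1640 with 10% FBS were exposed to several concentrations of compound for 72 h at 37° C and 5% CO2. Viable cells were quantified by MTT, with inhibition set to 0% in untreated controls.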

Hep G2 cell line = assay: solid tumor cell growth inhibition, MTT; type: cell-based, human; conditions: Homo sapiens; for inhibition at 16 µg/mL: HepG2, 72 h, Hep G2, 16 μg/mL compound, 72 h, read-out: IR (cell proliferation inhibition rate); for IC50: HepG2, Hep G2, 72 h
Outline: as §1

| SMILES | IC50 (Hela cell line) [µg/mL] | inhibition at 16 µg/mL (Hela cell line) [%] | inhibition at 16 µg/mL (Becap37 cell line) [%] | IC50 (Becap37 cell line) [µg/mL] | inhibition at 16 µg/mL (CNE cell line) [%] | IC50 (CNE cell line) [µg/mL] | inhibition at 16 µg/mL (CaES-17 cell line) [%] | IC50 (CaES-17 cell line) [µg/mL] | IC50 (PANC-1 cell line) [µg/mL] | inhibition at 16 µg/mL (PANC-1 cell line) [%] | IC50 (Hep-2 cell line) [µg/mL] | inhibition at 16 µg/mL (Hep-2 cell line) [%] | inhibition at 16 µg/mL (MGC 803 cell line) [%] | IC50 (MGC 803 cell line) [µg/mL] | IC50 (MG-63 cell line) [µg/mL] | inhibition at 16 µg/mL (MG-63 cell line) [%] | IC50 (PC-3 cell line) [µg/mL] | inhibition at 16 µg/mL (PC-3 cell line) [%] | inhibition at 16 µg/mL (U87 MG cell line) [%] | IC50 (U87 MG cell line) [µg/mL] | other results |
| --- | --- | --- | --- | --- | --- | --- | --- | --- | --- | --- | --- | --- | --- | --- | --- | --- | --- | --- | --- | --- | --- |
| COC(=O)[C@]12CCC(C)(C)C[C@H]1C1=CC[C@@H]3[C@@]4(C)CC(C(=O)NCCN5CCOCC5)C(=O)C(C)(C)[C@@H]4CC[C@@]3(C)[C@]1(C)CC2 (some centres unmarked) [BS-OA-059] | 16 (≈ 25.6 µM) | 51.8 | 4.7 | > 16 | 20.6 | > 16 | 34 | > 16 | > 16 | 10.4 | > 16 | 0 | -7.4 | > 16 | > 16 | 27 | > 16 | 34.1 | 30.6 | > 16 | IC50 (A549 cell line): > 16 µg/mL; inhibition at 16 µg/mL (A549 cell line): 11.8%; inhibition at 16 µg/mL (RKO cell line): 1.8%; IC50 (RKO cell line): > 16 µg/mL; IC50 (SK-OV-3 cell line): > 16 µg/mL; inhibition at 16 µg/mL (SK-OV-3 cell line): 35.2%; inhibition at 16 µg/mL (NB4 cell line): 86.7%; IC50 (NB4 cell line): 9.74 µg/mL (≈ 15.6 µM); IC50 (K562/adr cell line): 8.87 µg/mL (≈ 14.2 µM); inhibition at 16 µg/mL (K562/adr cell line): 80.5%; inhibition at 16 µg/mL (Jurkat cell line): 23.8%; IC50 (Jurkat cell line): > 16 µg/mL; inhibition at 16 µg/mL (Kasumi-1 cell line): 48.7%; IC50 (Kasumi-1 cell line): 16 µg/mL (≈ 25.6 µM); IC50 (H9 cell line): 12.7 µg/mL (≈ 20.4 µM); inhibition at 16 µg/mL (H9 cell line): 67.7%; inhibition at 16 µg/mL (RPMI8226 cell line): 96.6%; IC50 (RPMI8226 cell line): 7.18 µg/mL (≈ 11.5 µM); inhibition at 16 µg/mL (Hep G2 cell line): 0.6%; IC50 (Hep G2 cell line): > 16 µg/mL |
| COC(=O)[C@]12CCC(C)(C)CC1C1=CCC3[C@@]4(C)CC(C(=O)NCCCN5CCN(C)CC5)C(=O)C(C)(C)C4CC[C@@]3(C)[C@]1(C)CC2 (some centres unmarked) [BS-OA-078] | 4.54 (≈ 6.96 µM) | 99.4 | 98.1 | 6.23 (≈ 9.56 µM) | 99.7 | 5.01 (≈ 7.68 µM) | 99.4 | 3.61 (≈ 5.54 µM) | 9.69 (≈ 14.9 µM) | 100 | 8.25 (≈ 12.7 µM) | 97.3 | 99.5 | 5.26 (≈ 8.07 µM) | 5.7 (≈ 8.74 µM) | 100 | 6.82 (≈ 10.5 µM) | 98.4 | 98.6 | 3 (≈ 4.6 µM) | IC50 (A549 cell line): 3.58 µg/mL (≈ 5.49 µM); inhibition at 16 µg/mL (A549 cell line): 97.6%; inhibition at 16 µg/mL (RKO cell line): 97.5%; IC50 (RKO cell line): 3.91 µg/mL (≈ 6 µM); IC50 (SK-OV-3 cell line): 5.49 µg/mL (≈ 8.42 µM); inhibition at 16 µg/mL (SK-OV-3 cell line): 98.9%; inhibition at 16 µg/mL (NB4 cell line): 100%; IC50 (NB4 cell line): 4.59 µg/mL (≈ 7.04 µM); IC50 (K562/adr cell line): 0.89 µg/mL (≈ 1.37 µM); inhibition at 16 µg/mL (K562/adr cell line): 99.1%; inhibition at 16 µg/mL (Jurkat cell line): 98.3%; IC50 (Jurkat cell line): 2.5 µg/mL (≈ 3.83 µM); inhibition at 16 µg/mL (Kasumi-1 cell line): 97.9%; IC50 (Kasumi-1 cell line): 5.67 µg/mL (≈ 8.7 µM); IC50 (H9 cell line): 4.33 µg/mL (≈ 6.64 µM); inhibition at 16 µg/mL (H9 cell line): 97.5%; inhibition at 16 µg/mL (RPMI8226 cell line): 99.1%; IC50 (RPMI8226 cell line): 0.74 µg/mL (≈ 1.14 µM); inhibition at 16 µg/mL (Hep G2 cell line): 99.7%; IC50 (Hep G2 cell line): 4.77 µg/mL (≈ 7.32 µM) |
